Assay in all cases: inhibition of tumour cell growth, NCI panel, 48 h
Assay [1] deals with SNB-75.
Assay [2] has as its system OVCAR-4.
In assay [3] the test system is OVCAR-3.
Assay [4] relates to UO-31.
Assay [5] has as its system U-251.
In assay [6] the test system is HOP-92.
Assay [7] concerns MDA-MB-435.
The subject of assay [8] is IGROV-1.
Assay [9] has as its system SK-MEL-5.
In assay [10] the test system is Malme-3M.
Assay [11] concerns OVCAR-8.
The subject of assay [12] is SK-MEL-28.
The test system of assay [13] is RXF 393.
In assay [14] the test system is UACC-257.
In assay [15] the test system is M14.
Assay [16] has as its system NCI/ADR-RES.
Assay [17] has as its system OVCAR-5.
The test system of assay [18] is SR.
The test system of assay [19] is SF-268.
In assay [20] the test system is HL-60.

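Method: 48-hour compound exposure of cells in 96-well plates, five concentrations, linear interpolation of endpoints. Here, GI50 denotes the concentration required for 50% inhibition of growth.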 Active and inactive are the calls of the source. Cut-off read from the data, not from the text of the source: active = GI50 up to about 1.1 µM and inactive = higher. A value given as a limit tells only on which side of the number the result lay.

The text below walks through data of ChEMBL document CHEMBL1201862, “PubChem BioAssay data set” (2004).

With `Nc1cc2c3c(cccc3c1)C(=O)N(c1ccc(OCCN3CCCC3)cc1)C2=O`, the GI50 was 3.94 µM (inactive) in [1]; 17.1 µM (inactive) in assay [2]; 16 µM (inactive) in [3]; 15.1 µM (inactive) in assay [4]; 25.6 µM (inactive) in assay [5]; 17.8 µM (inactive) in [6]. For the same compound, the GI50 is 18.7 µM (inactive) in [7]; 16.3 µM (inactive) in [8]; 18.7 µM (inactive) in assay [9]; 17.7 µM (inactive) in assay [10]; 15.9 µM (inactive) in assay [11]; 20.3 µM (inactive) in [12]. Also, the GI50 in assay [13] is 14.2 µM (inactive); in assay [14] it was 16.2 µM (inactive); in assay [15] it was 20.7 µM (inactive); in assay [16] it was 23.9 µM (inactive); in [17], 21.1 µM (inactive); in assay [18], 17.9 µM (inactive). In addition, in assay [19], the GI50 was 21.3 µM (inactive).

With `CC(=O)OCC(OC(C)=O)C1C[C@H]2O[C@@H]3[C@H](C[C@H]2O1)O[C@@]1(C[C@@H]3C)C[C@H](C)[C@@H]2O[C@]3(C[C@@H]2O1)C[C@H]1O[C@H]2[C@H](C)[C@H]4OC(=O)CC5CC[C@H]6OC7[C@H]8O[C@]9(CC[C@H]%10CC(O)(CO)[C@H](CC[C@H]%11C[C@@H](C)C(O)(CO)C(C[C@@H]4O[C@H]2C[C@H]1O3)O%11)O%10)CC8O[C@@H]7[C@@H](O9)[C@H]6O5` (stereo not given in full), the GI50 in [1] is 0.00308 µM (active); in [3], 0.00655 µM (active); in [4], 0.0226 µM (active); in assay [5] it was 0.00618 µM (active); in assay [6], 0.0504 µM (active); in assay [7], 0.000853 µM (active). Moreover, the GI50 in [8] is 0.00436 µM (active); in [9], 0.00141 µM (active); in [10], 0.00297 µM (active); in assay [11], 0.0121 µM (active); in assay [12], 0.0303 µM (active); in [13] it was 0.00253 µM (active). The GI50 in assay [14] was 0.00555 µM (active); in assay [15] it was 0.00935 µM (active); in assay [16] it was 0.0201 µM (active); in assay [17], > 0.27 µM (active); in assay [18] it was 0.000581 µM (active); in assay [19], 0.00986 µM (active).

`O=C(O)CCC(C(=O)O)N1C(=O)C2C3CCC(C3)C2C1=O` (stereo not given): the GI50 in assay [1], in assay [2], in assay [3], in assay [5], in assay [6] and in assay [7] was > 100 µM (inactive) each time. Moreover, the GI50 in assay [8], in assay [9], in assay [10], in assay [11], in assay [12] and in [13] was > 100 µM (inactive) each time. The GI50 in [14], in [15], in assay [16], in assay [17], in assay [18] and in [19] was > 100 µM (inactive) throughout.

As to `Cc1cc2c(c(S(=O)(=O)c3ccc(Cl)cc3[N+](=O)[O-])c1)NCCC2`, the GI50 in assay [1] was > 100 µM (inactive); in [2], 15.3 µM (inactive); in assay [3], > 100 µM (inactive); in assay [4], > 100 µM (inactive); in assay [20], > 10 µM (inactive); in assay [5] it was > 100 µM (inactive). Besides, the GI50 in assay [7] was 42.9 µM (inactive); in assay [8], > 100 µM (inactive); in [9], 25.9 µM (inactive); in assay [10], > 100 µM (inactive); in assay [11], > 100 µM (inactive); in assay [12] it was > 100 µM (inactive). Also, the GI50 in assay [13] is > 100 µM (inactive); in [15] it was 41.9 µM (inactive); in [16], 37.6 µM (inactive); in assay [17], > 100 µM (inactive); in [18] it was 12.2 µM (inactive); in assay [19] it was 99.3 µM (inactive).

`O=C(O)C1Cc2ccccc2OC1=O` (stereo not given): the GI50 in assay [3], in [4], in assay [5], in [7], in assay [8] and in [9] was > 100 µM (inactive) each time. Moreover, the GI50 in assay [10], in assay [11], in assay [12], in assay [13], in assay [14] and in assay [15] was > 100 µM (inactive) throughout. Moreover, the GI50 in assay [16], in [17], in assay [18] and in [19] was > 100 µM (inactive) throughout.

With `CC1(C)CS(=O)(=O)CC(C)(C)C(=N/N)/C1=N\N`, the GI50 in assay [1], in assay [2], in assay [3], in [20], in assay [5] and in [6] was > 100 µM (inactive) in each case. Moreover, the GI50 in [7], in [8], in [9], in assay [10], in assay [11] and in [12] was > 100 µM (inactive) in each case. For the same compound, the GI50 in assay [14], in assay [15], in assay [16], in assay [17], in assay [18] and in assay [19] was > 100 µM (inactive) in each case.

For the compound `C[N+]1(C)C2CC(OC(=O)C(CO)c3ccccc3)CC1C1OC12` (stereo not given), the GI50 in [1], in assay [2], in [3], in assay [4], in assay [20] and in assay [5] was > 100 µM (inactive) each time. Moreover, the GI50 in assay [7], in assay [8], in assay [9], in [10], in [11] and in assay [12] was > 100 µM (inactive) throughout. Also, the GI50 in [13], in [14], in [15], in [16], in assay [17] and in assay [18] was > 100 µM (inactive) throughout.

Consider `CC(C)CC(Nc1c(O)ccc2ccccc12)C(=O)O` (stereo not given), for which the GI50 is 32.3 µM (inactive) in [1]; 51.4 µM (inactive) in [2]; 20.7 µM (inactive) in [3]; 27.6 µM (inactive) in [4]; 34.2 µM (inactive) in assay [20]; 29.8 µM (inactive) in assay [5]. The GI50 in [7] was 17.3 µM (inactive); in assay [8], 32.7 µM (inactive); in assay [9], 18.3 µM (inactive); in assay [10], 15.2 µM (inactive); in assay [12], 45.9 µM (inactive); in assay [13], 12.9 µM (inactive). Moreover, the GI50 was 20.5 µM (inactive) in assay [14]; 37.8 µM (inactive) in assay [15]; 37.8 µM (inactive) in assay [16]; 80.7 µM (inactive) in assay [17]; 28.1 µM (inactive) in assay [18]; 24.7 µM (inactive) in assay [19].

For `CC(C)=CC[C@H]1C[C@]2(CC=C(C)C)C(=O)[C@@](CC=C(C)C)(C(=O)C(C(=O)c3ccccc3)=C2O)C1(C)C` [6-EPI-CLUSIANONE], the GI50 was 7.28 µM (inactive) in assay [1]; 5.15 µM (inactive) in assay [2]; 3.44 µM (inactive) in [4]; 4.31 µM (inactive) in assay [5]; 4.31 µM (inactive) in [6]; 5.4 µM (inactive) in [7]. Besides, the GI50 in assay [8] was 3.82 µM (inactive); in assay [9], 4.53 µM (inactive); in assay [10], 6.49 µM (inactive); in [11], 5.78 µM (inactive); in [12], 10.2 µM (inactive); in [13] it was 6.75 µM (inactive). The GI50 in assay [14] is 4.71 µM (inactive); in assay [15], 6.65 µM (inactive); in assay [16] it was 5.33 µM (inactive); in assay [17] it was 4.98 µM (inactive); in assay [18], 8.65 µM (inactive); in assay [19] it was 10.2 µM (inactive).

Consider `NC1CC(=O)c2cc(Br)sc21` (stereo not given), for which the GI50 in assay [1], in [3], in [4], in assay [20], in assay [5] and in [7] was > 100 µM (inactive) in each case. The GI50 in assay [8], in assay [9], in [10], in assay [11], in [12] and in [13] was > 100 µM (inactive) throughout. Further, the GI50 in assay [14], in assay [15], in assay [16], in [17], in assay [18] and in [19] was > 100 µM (inactive) each time.

As for `COc1ccc(N2C(=O)CC(C3CC(C(C)(C)C)CCC3=O)C2=O)cc1` (stereo not given), the GI50 in assay [1], in assay [2], in assay [4], in assay [20], in assay [5] and in [7] was > 100 µM (inactive) throughout. Also, the GI50 in assay [8], in [9], in [11], in assay [12], in [13] and in assay [14] was > 100 µM (inactive) throughout. Besides, the GI50 in [15], in [16], in [18] and in assay [19] was > 100 µM (inactive) throughout.
